One data set has as its target hERG (Homo sapiens, UniProt Q12809). Put plainly: hERG patch clamp. The format is cell-based.
In the next data set the target is CYP 2C19 (Homo sapiens, UniProt P33261). Briefly: CYP inhibition. The format is in vitro ADME.
The next data set addresses Muscarinic M2 (Homo sapiens, UniProt P08172). Briefly: Receptor selectivity (Cerep). The format is binding.
A short description of the next data set: Protein binding, dog. To be noted: dog (D). It is filed as in vitro ADME.
Data set [1] can be described thus: In vitro metabolic stability, rat. It is filed as in vitro ADME. To be noted: rat (R); read-out: In vitro metabolic stability t1/2.
A further data set addresses Muscarinic M4 (Homo sapiens, UniProt P08173). Briefly: Receptor selectivity (Cerep). It is filed as binding.
Data set [2] is described as follows: In vitro metabolic stability, human. It is filed as in vitro ADME. Particulars: human (H); read-out: In vitro metabolic stability t1/2.

From patent publication US10632119B2, “Fused bicyclic 2,4-diaminopyrimidine derivative as a dual ALK and FAK inhibitor” (priority 2012, dated 2020) come the findings set out here.

hERG, sequence (Q12809 whole entry): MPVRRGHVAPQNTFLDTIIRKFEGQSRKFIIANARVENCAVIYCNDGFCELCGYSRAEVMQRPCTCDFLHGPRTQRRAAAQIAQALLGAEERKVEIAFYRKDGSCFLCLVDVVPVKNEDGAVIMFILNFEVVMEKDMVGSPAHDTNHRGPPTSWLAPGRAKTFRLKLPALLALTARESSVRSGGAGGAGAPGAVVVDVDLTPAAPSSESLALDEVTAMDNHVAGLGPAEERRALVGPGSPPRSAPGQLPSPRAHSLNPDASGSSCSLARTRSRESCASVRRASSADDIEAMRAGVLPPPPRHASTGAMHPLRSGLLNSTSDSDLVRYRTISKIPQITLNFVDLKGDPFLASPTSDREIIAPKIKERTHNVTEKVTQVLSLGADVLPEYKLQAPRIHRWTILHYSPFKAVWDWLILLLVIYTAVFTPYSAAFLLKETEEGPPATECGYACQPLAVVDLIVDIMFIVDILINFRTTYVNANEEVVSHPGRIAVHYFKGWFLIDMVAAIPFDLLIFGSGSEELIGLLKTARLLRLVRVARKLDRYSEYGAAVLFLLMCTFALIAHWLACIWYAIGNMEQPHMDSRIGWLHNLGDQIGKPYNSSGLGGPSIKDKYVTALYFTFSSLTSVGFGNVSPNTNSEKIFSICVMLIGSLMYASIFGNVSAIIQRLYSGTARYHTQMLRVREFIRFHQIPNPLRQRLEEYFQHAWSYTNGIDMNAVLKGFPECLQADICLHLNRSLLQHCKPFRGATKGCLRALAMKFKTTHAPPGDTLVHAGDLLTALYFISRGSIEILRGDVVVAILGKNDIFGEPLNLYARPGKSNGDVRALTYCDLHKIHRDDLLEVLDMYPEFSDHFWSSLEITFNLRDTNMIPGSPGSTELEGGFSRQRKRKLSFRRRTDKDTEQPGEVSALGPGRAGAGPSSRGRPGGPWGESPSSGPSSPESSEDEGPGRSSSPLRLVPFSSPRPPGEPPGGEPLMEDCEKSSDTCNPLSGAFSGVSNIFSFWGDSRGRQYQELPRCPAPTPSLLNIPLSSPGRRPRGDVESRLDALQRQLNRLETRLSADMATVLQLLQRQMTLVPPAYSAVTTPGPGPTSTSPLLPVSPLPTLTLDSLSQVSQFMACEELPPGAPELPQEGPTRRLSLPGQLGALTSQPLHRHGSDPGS
Muscarinic M4, sequence (P08173 whole entry): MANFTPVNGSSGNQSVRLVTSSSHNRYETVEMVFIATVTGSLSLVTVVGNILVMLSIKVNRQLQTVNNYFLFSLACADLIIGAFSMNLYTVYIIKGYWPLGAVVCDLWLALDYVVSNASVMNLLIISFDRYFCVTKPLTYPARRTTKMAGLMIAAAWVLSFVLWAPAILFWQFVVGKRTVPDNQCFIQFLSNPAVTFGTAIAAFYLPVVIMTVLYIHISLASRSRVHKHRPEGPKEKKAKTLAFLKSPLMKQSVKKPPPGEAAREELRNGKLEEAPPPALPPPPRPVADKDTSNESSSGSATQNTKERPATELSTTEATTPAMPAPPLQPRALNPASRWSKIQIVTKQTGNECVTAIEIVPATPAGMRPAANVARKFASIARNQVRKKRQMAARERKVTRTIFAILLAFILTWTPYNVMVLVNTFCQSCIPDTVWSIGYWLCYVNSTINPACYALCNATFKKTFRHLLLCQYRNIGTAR
CYP 2C19, sequence (P33261 whole entry): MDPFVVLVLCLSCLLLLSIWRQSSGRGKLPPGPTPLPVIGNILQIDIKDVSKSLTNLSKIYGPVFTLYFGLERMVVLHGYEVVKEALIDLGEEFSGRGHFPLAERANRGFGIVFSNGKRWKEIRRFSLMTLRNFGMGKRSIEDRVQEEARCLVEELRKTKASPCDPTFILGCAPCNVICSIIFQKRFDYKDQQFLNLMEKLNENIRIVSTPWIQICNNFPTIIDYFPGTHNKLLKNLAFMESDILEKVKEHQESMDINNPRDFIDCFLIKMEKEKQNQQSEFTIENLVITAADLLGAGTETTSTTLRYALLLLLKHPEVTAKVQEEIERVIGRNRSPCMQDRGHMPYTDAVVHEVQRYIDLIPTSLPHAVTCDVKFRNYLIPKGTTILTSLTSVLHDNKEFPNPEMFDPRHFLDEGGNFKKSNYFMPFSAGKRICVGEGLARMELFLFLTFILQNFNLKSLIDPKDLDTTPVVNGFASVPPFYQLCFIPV
Muscarinic M2, sequence (P08172 whole entry): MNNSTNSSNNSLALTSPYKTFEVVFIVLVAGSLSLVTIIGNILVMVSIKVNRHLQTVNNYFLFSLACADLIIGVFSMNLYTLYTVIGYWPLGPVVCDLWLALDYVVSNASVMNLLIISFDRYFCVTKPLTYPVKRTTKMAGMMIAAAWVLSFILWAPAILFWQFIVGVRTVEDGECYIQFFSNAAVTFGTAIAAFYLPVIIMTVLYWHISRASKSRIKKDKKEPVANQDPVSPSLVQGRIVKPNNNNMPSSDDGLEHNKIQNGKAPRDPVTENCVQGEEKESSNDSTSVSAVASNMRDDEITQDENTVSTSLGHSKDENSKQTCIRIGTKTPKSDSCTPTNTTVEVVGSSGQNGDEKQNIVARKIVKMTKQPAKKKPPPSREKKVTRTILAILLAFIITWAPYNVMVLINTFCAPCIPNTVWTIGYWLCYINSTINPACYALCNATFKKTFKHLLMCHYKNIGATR

On to `CNC(=O)c1ccccc1Nc1nc(Nc2ccc3c(c2OC)CCC[C@H](N2CCN(CCO)CC2)C3)ncc1Cl` [CEP-37440, 2-[[5-chloro-2-[[(6S)-6-[4-(2-hydroxyethyl)piperazin-1-yl]-1-methoxy-6,7,8,9-tetrahydro-5H-benzo[7]annulen-2-yl]amino]pyrimidin-4-yl]amino]-N-methyl-benzamide], for which the results for the IC50 against hERG and against CYP 2C19 were above 10 µM and above 20 µM, respectively. Moreover, the Ki came to 2000 nM on Muscarinic M2 and 460 nM on Muscarinic M4. The molecule also displayed a Protein binding in “Protein binding, dog” of 94 % bound. Also, the half-life in data set [1] and in data set [2] was above 40 min throughout.

As usually defined, the IC50 is the concentration needed to halve the response being measured. Lower therefore signals higher potency. One may read the Ki as the dissociation constant of the complex between target and ligand, obtained from inhibition or displacement. Read a high Ki as weaker binding.
